# Results from publication PMC9740789, “Investigation of In Vitro and In Vivo Metabolism of α-Amanitin in Rats Using Liquid Chromatography-Quadrupole Time-of-Flight Mass Spectrometric Method” (Molecules, 2022).
# Assays:
# [1] = In vitro metabolic stability in rat liver microsomes; format: in vitro ADME
# Experimental: (§1) In vitro stability of α-amanitin at liver microsomal system was evaluated by a LC-qTOF-MS. The remaining % represents the percentage of the sample (α-amanitin) peak area to the internal standard (verapamil) peak area.
# (§2) The in vitro half-life (T1/2) and the in vitro intrinsic clearance (CLint, in vitro) were calculated by using the slope (k) of the graph shown in Figure 3. The calculation formula is shown in Equations (1) and (2). (1) T1/2=ln2/k (2) CLint,in vitromL/min/mg=k×microsomal volume mL/microsomal protein mg
# (§3) The concentration of liver microsomes (microsomal volume/microsomal protein) used in the experiment was 0.5 mL/mg. The obtained CLint, in vitro was used to calculate in vivo intrinsic clearance (CLint, in vivo). The equations for calculating CLint, in vivo is shown at Equation (3):(3) CLint,in vivomL/min/kg=CLint,in vitro×mg microsomal protein/g liver weight×(g liver weight/kg body weight)
# (§4) The ratio of mg microsomal protein to g liver weight was 44.8 and 48.8 in rat and human, respectively. And the ratio of g liver weight/kg body weight was 40 and 25.7 in rat and human, respectively. The hepatic clearance (CLh) was calculated from CLint, in vivo in a well-stirred model using the following Equation (4):(4) CLhmL/min=(Qh×CLint,in vivo/Qh+CLint,in vivo)
# (§5) Qh (mL/min/kg), the hepatic blood flow, is known to be 55.2 and 20.7 mL/min/kg in rat and human, respectively. As a result, α-amanitin has a low hepatic clearance according to the aforementioned well-stirred model.
# (§6) A metabolic stability test of α-amanitin was performed in rat and human liver microsomes. Cofactors (NADPH regenerating system solution A and B), compound (100 μg/mL of α-amanitin), 0.5 M potassium phosphate buffer with pH 7.4, and DW were mixed and pre-incubated for 5 min at 37 °C. After the pre-incubation, 12 μL of rat or human liver microsome (20 mg/mL each) was added to a 468 μL of pre-incubated cofactor mixture and the mixture was incubated for 0, 15, 30, and 60 min. After the incubation for each time point, 100 μL of the mixture was aliquoted to a 1.5 mL E-tube at each time point and 100 μL of 50% ACN in MeOH which containing 250 ng/mL of verapamil as an internal standard for protein precipitation was added for stopping the reaction. Then the mixture was centrifuged at 10,000 rpm for 5 min. Then 180 μL of the supernatants was collected in a fresh E-tube and evaporated for 3 h. After evaporation, samples were reconstituted with 150 μL of 50% MeOH with 5 mM ammonium formate. After centrifugation at 10,000 rpm for 5 min, 140 μL of reconstituted sample was transferred to a LC-vial.
# [2] = In vitro metabolic stability in human liver microsomes; format: in vitro ADME
# Experimental: as §1, §2, §3, §4, §5, §6
# [3] = in vivo; format: in vivo, rat
# Experimental: The above developed LC-qTOF-MS method was applied to obtain the PK parameters after IV and PO administration in rat. Most of the PK samples were within the qualified calibration curve, except the 2 min-time point samples in the IV group which were slightly above the upper limit of quantification (ULOQ). Since the calibration curve was linear in the range of quantification, the concentrations of these early time point IV samples have been calculated by extrapolation of the calibration curve which is also applicable for discovery study in pharmaceutical industries. The PK parameters were calculated with the non-compartmental analysis (NCA) using WinNonlin® version 8.1.0 (Certara, Princeton, NJ, USA) and the results are summarized in Table 6.
# Animal Male SD rats (320 ± 10 g) were purchased from the Samtako Biokorea co. (Gyeonggi, Republic of Korea) and housed in a group of four units per cage and given standard rodent chow. The rats were fasted overnight with free access to water for 12 h before administration. The formulation was prepared by dissolving α-amanitin in normal saline (NS) and DMSO (4:1, v/v).
# The rats with femoral artery and femoral vein cannulation were prepared for the IV administration, and the rats with single femoral artery cannulation were prepared for the PO administration. The cannulated SD rats were given 1 mg/kg of α-amanitin by either IV bolus or PO (n = 4, both). After administration of α-amanitin, blood sample was collected through a femoral artery cannula and transferred into a heparin-containing tube at each sampling time point (IV: 2, 5, 15, 30, 60, 120, 240, 480, and 1440 min after drug administration and PO: 5, 15, 30, 60, 120, 240, 480, and 1440 min after drug administration). Then plasma sample was obtained by centrifuging the blood sample at 13,000 rpm for 5 min. The obtained plasma samples were stored at –20 °C until analysis. After analysis, the PK parameter was calculated using WinNonlin®.
# [4] = rat, in vivo, male SD rats, IV bolus 1 mg/kg, plasma, NCA, n = 4
structure (smiles),measurement,setting,value
CC[C@H](C)[C@@H]1NC(=O)CNC(=O)[C@@H]2Cc3c([nH]c4cc(O)ccc34)[S@+]([O-])C[C@H](NC(=O)CNC1=O)C(=O)N[C@@H](CC(N)=O)C(=O)N1C[C@H](O)C[C@H]1C(=O)N[C@@H]([C@@H](C)[C@@H](O)CO)C(=O)N2 [α-amanitin],remaining at 0.25 h,"[1]; rat liver microsomes, 15 min incubation, NADPH regenerating system, potassium phosphate buffer pH 7.4, 37 °C, 5 min pre-incubation, LC-qTOF-MS",94.2 ± 8.6%
same,remaining at 0.5 h,"[1]; rat liver microsomes, 30 min incubation, NADPH regenerating system, potassium phosphate buffer pH 7.4, 37 °C, 5 min pre-incubation, LC-qTOF-MS",93.1 ± 8.64%
same,remaining at 1 h,"[1]; rat liver microsomes, 60 min incubation, NADPH regenerating system, potassium phosphate buffer pH 7.4, 37 °C, 5 min pre-incubation, LC-qTOF-MS",90.3 ± 4.37%
same,half-life,"[1]; rat liver microsomes, in vitro half-life, ln2/k from slope of ln(Remaining %) vs incubation time 0-60 min, NADPH, pH 7.4, 37 °C",7.45 h
same,"CLint, In Vitro","[1]; rat liver microsomes, k × microsomal volume/microsomal protein (0.5 mL/mg as printed)",<10 µL/min/mg
same,CLh,"[1]; rat, predicted hepatic clearance, well-stirred model, Qh 55.2 mL/min/kg",5.05 mL/min/kg
same,"CLint, In Vivo","[1]; rat, scaled from CLint, in vitro with 44.8 mg microsomal protein/g liver and 40 g liver/kg body weight",5.56 mL/min/kg
same,remaining at 0.25 h,"[2]; human liver microsomes, 15 min incubation, NADPH regenerating system, potassium phosphate buffer pH 7.4, 37 °C, 5 min pre-incubation, LC-qTOF-MS",89.2 ± 5.72%
same,remaining at 0.5 h,"[2]; human liver microsomes, 30 min incubation, NADPH regenerating system, potassium phosphate buffer pH 7.4, 37 °C, 5 min pre-incubation, LC-qTOF-MS",85.1 ± 5.52%
same,remaining at 1 h,"[2]; human liver microsomes, 60 min incubation, NADPH regenerating system, potassium phosphate buffer pH 7.4, 37 °C, 5 min pre-incubation, LC-qTOF-MS",82.6 ± 3.96%
same,half-life,"[2]; human liver microsomes, in vitro half-life, ln2/k from slope of ln(Remaining %) vs incubation time 0-60 min, NADPH, pH 7.4, 37 °C",3.93 h
same,"CLint, In Vitro","[2]; human liver microsomes, k × microsomal volume/microsomal protein (0.5 mL/mg as printed)",<10 µL/min/mg
same,CLh,"[2]; human, predicted hepatic clearance, well-stirred model, Qh 20.7 mL/min/kg",5.43 mL/min/kg
same,"CLint, In Vivo","[2]; human, scaled from CLint, in vitro with 48.8 mg microsomal protein/g liver and 25.7 g liver/kg body weight",7.36 mL/min/kg
same,Plasma concentration after PO administration,"[3]; male SD rats, PO 1 mg/kg, all samples 5-1440 min, n = 4, calibration range 3.05–2220 ng/mL",below the LLOQ
same,In vivo clearance as % of hepatic blood flow,"[3]; rat, IV 1 mg/kg",~30%
same,Bioavailability (in words),"[3]; rat, PO 1 mg/kg",very low bioavailability
same,AUC(0-t),[3]; [4],1170 ng·h/mL
same,clearance,[3]; [4],14 ± 1.3 mL/min/kg
same,half-life,[3]; [4],0.372 ± 0.0163 h
same,Cmax,"[3]; rat, in vivo, male SD rats, IV bolus 1 mg/kg, plasma, NCA, n = 4, 2 min samples extrapolated above ULOQ",2290 ± 274 ng/mL
same,Vd,"[3]; rat, in vivo, male SD rats, IV bolus 1 mg/kg, plasma, NCA, n = 4, read-out: Vss",0.409 ± 0.0183 L/kg
